Patent US20070197435A1, “Process for the synchronization of ovulation for timed breeding without heat detection” (priority 2006, published 2007)

Experiments:
mature postpartum sows = test: Intravulvar deslorelin at estrus detection, estrus length, pregnancy rate and live piglets; type: in vivo, swine; settings: 50 μg deslorelin acetate intravulvar at first estrus detection
Experimental: Sows were assigned randomly in blocks of two to either control or to be injected intravulvar with 50 mcg of deslorelin in SAIB at the time of estrus detection for sows first detected in estrus in the a.m. and 12 hours later for those first detected in estrus in the p.m. Treated animals were bred Al upon detected estrus and again 24 hours later if still in estrus. Controls received a saline injection on first detected estrus behavior estrus detection and were bred according to the farm's normal procedures. Saline sows bred at detected estrus consistent with farm sows. Deslorelin sows injected intravulvar with 1 ml (50 μg deslorelin acetate) at first estrus detection and AI, then AI again if in estrus the next day. Live piglet number 0.6>in Deslorelin versus Saline sows.

[1] = test system: ovariectomized estrogen primed gilt model; test: Dose response study of deslorelin in SAIB, LH release determined by RIA; type: in vivo, swine; settings: single injection of 50 mcg deslorelin in SAIB
Experimental: A dose response study was performed using deslorelin in SAIB in an ovariectomized estrogen primed gilt model (Barb, et al. (1999) Proceed. Int'l. Symp. Control. Rel. Bioact. Mater., 26).

CCNC(=O)[C@@H]1CCCN1C(=O)[C@H](CCCN=C(N)N)NC(=O)[C@H](CC(C)C)NC(=O)[C@@H](Cc1c[nH]c2ccccc12)NC(=O)[C@H](Cc1ccc(O)cc1)NC(=O)[C@H](CO)NC(=O)[C@H](Cc1c[nH]c2ccccc12)NC(=O)[C@H](Cc1cnc[nH]1)NC(=O)[C@@H]1CCC(=O)N1 [Deslorelin, deslorelin]
Live piglet number, greater in Deslorelin versus Saline sows (per litter) (mature postpartum sows): 0.6 | Time by which LH returned to base level [1]: ≤ 18 h
